Data: ChEMBL document CHEMBL5465560, “Selectivity Literature for EUbOPEN Chemogenomic Library” (2024)

Tests used:
[1] = molecular target: Histamine H4 receptor (Homo sapiens) (UniProt Q9H3N8); experiment: Selectivity interaction (GPCR panel (PDSP screen)) EUB0001079a HRH4; conditions: at 10 µM
[2] = molecular target: Dual specificity protein kinase CLK2 (Homo sapiens, UniProt P49760); experiment: Selectivity interaction (KinomeScan (DiscoverX)) EUB0001079a CLK2; conditions: at 1 µM
[3] = molecular target: T1, Mitogen-activated protein kinase kinase kinase 2 (Homo sapiens) (UniProt Q9Y2U5); experiment: Selectivity interaction (ActivX KiNativ screen (kinase selectivity in THP-1 cell lysates)) EUB0000639a MAP3K2; type: subcellular; conditions: lysate, at 0.01 µM
T1 sequence (whole entry): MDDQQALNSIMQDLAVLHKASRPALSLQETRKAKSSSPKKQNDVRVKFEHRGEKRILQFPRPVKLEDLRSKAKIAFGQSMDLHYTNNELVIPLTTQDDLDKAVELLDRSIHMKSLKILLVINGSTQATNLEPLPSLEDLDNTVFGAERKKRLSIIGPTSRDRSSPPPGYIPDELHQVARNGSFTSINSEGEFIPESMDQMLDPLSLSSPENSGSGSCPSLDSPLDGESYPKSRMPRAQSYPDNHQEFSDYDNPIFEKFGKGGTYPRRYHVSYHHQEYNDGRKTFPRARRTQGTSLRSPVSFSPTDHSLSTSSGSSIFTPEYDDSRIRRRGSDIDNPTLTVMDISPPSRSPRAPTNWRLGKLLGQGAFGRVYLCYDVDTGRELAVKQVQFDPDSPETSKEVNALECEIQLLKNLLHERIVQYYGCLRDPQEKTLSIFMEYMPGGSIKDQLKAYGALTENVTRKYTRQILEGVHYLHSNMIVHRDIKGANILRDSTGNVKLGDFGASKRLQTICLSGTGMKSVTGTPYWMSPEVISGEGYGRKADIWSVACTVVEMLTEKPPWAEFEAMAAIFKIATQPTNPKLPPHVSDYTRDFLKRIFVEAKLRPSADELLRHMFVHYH

[4] = molecular target: Activin receptor type-1-like (Homo sapiens) (UniProt P37023); conditions: at 10 µM
[5] = molecular target: Beta-2 adrenergic receptor (Homo sapiens, UniProt P07550); experiment: Selectivity interaction (Panel of kinases, GPCRs, ion channels and transporters (enzymatic assay)) EUB0000223bCl ADRB2
[6] = molecular target: T2, Ephrin type-A receptor 6 (Homo sapiens) (UniProt Q9UF33); experiment: Selectivity interaction (LanthaScreen Eu Kinase Binding Assay) EUB0001632a EPHA6; conditions: at 10 µM
T2 sequence (whole entry): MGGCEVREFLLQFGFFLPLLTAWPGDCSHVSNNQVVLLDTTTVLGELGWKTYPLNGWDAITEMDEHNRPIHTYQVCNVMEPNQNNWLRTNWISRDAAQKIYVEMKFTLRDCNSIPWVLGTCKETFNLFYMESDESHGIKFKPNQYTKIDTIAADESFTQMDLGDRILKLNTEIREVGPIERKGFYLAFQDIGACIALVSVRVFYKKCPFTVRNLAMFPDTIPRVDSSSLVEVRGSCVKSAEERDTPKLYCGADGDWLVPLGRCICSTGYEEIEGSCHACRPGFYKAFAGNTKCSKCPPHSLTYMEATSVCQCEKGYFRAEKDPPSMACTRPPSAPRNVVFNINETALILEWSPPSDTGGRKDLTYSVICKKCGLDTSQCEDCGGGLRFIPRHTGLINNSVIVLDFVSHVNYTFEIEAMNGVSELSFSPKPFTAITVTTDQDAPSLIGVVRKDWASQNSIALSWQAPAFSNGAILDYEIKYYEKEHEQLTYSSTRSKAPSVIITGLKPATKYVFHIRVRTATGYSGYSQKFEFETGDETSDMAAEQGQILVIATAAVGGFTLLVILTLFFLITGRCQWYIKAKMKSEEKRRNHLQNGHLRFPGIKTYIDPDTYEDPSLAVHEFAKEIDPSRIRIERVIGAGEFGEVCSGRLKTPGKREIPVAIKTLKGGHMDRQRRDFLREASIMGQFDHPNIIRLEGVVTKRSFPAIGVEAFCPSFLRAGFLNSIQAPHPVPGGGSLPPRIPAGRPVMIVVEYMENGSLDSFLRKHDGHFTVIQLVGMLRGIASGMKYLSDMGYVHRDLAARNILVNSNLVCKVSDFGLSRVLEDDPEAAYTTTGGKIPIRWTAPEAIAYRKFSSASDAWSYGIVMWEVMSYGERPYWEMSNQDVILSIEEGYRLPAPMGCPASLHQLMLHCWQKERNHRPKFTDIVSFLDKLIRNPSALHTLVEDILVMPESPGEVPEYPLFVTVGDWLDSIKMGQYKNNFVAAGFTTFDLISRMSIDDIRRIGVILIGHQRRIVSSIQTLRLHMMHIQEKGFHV

[7] = molecular target: T3, 5-hydroxytryptamine receptor 3A (Homo sapiens) (UniProt P46098); experiment: Selectivity interaction (Panel of non-epigenetic targets (kinases, GPCRs, ion channels, and transporters, Eurofins) ) EUB0000271b HTR3A; conditions: at 1 µM
T3 sequence (whole entry): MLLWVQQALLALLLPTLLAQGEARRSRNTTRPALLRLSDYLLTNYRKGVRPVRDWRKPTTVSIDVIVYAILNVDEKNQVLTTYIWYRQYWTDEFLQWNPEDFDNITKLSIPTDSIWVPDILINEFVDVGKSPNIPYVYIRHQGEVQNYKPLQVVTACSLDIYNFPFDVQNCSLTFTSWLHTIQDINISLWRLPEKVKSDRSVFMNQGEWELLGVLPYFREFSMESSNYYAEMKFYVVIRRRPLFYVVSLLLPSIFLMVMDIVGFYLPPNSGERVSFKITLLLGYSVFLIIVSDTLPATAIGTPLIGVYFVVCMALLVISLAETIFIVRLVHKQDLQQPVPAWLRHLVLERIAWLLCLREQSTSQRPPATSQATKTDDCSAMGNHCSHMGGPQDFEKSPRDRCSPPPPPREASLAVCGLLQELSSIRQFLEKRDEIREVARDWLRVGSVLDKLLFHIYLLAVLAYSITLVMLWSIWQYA

[8] = molecular target: Coiled-coil domain-containing protein 6/Tyrosine-protein kinase receptor RET (Homo sapiens) (UniProt P07949+Q16204); experiment: Selectivity interaction (ProQinase) EUB0000171b RET; type: protein assay
Sequence of Coiled-coil domain-containing protein 6/Tyrosine-protein kinase receptor RET (Homo sapiens) (P07949 29-1114 limits assumed): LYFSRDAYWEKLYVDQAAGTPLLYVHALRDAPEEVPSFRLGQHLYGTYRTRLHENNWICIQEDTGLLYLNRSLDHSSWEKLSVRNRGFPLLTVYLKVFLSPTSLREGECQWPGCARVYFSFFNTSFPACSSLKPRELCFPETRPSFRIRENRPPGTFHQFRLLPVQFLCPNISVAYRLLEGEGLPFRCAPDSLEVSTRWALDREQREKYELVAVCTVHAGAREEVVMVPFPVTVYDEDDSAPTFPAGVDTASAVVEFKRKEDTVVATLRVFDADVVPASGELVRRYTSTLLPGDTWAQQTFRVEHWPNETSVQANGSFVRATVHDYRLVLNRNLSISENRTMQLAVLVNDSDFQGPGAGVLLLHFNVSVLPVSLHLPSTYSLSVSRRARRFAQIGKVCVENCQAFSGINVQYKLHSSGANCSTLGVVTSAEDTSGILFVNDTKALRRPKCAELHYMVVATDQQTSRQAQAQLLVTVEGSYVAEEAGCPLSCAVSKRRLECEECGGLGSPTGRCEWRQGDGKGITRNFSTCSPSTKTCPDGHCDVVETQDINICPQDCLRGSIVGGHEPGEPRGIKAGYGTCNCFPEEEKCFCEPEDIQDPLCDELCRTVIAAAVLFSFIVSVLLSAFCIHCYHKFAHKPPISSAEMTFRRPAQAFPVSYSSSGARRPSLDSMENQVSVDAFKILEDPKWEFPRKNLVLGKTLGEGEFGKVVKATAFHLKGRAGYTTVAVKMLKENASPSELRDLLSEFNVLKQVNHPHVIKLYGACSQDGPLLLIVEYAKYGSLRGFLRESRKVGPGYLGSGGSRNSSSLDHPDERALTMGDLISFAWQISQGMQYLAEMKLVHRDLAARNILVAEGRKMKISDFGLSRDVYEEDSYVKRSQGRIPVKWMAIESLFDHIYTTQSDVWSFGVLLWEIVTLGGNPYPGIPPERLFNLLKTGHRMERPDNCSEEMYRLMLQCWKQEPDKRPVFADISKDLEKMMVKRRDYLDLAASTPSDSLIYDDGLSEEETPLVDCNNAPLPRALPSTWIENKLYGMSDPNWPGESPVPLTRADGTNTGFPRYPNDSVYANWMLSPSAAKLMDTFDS
Sequence of Coiled-coil domain-containing protein 6/Tyrosine-protein kinase receptor RET (Homo sapiens) (Q16204 2-474 partner limits assumed): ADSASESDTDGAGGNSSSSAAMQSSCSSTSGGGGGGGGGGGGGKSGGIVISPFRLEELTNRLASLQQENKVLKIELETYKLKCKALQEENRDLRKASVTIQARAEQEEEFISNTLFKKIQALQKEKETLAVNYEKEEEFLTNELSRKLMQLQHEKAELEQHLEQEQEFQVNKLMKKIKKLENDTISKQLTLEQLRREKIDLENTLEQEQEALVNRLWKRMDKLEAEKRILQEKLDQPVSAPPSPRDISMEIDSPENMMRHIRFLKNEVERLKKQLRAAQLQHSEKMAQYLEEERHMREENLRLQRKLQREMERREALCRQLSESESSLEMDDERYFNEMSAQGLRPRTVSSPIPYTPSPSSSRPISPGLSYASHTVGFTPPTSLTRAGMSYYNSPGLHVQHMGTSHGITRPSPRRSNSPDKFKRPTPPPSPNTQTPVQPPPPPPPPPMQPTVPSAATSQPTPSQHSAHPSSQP

Sequence of Histamine H4 receptor (Homo sapiens) (Q9H3N8 whole entry): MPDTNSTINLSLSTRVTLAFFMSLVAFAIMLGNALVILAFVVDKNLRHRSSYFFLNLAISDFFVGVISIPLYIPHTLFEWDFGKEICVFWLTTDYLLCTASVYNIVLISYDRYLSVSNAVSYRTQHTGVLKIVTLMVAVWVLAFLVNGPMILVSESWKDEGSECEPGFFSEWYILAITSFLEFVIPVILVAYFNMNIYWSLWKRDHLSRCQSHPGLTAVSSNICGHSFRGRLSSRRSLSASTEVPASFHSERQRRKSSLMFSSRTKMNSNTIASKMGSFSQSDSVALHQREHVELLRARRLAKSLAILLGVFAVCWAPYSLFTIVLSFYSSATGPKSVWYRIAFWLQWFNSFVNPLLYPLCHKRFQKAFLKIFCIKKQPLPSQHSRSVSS
Sequence of Beta-2 adrenergic receptor (P07550 whole entry, looked up): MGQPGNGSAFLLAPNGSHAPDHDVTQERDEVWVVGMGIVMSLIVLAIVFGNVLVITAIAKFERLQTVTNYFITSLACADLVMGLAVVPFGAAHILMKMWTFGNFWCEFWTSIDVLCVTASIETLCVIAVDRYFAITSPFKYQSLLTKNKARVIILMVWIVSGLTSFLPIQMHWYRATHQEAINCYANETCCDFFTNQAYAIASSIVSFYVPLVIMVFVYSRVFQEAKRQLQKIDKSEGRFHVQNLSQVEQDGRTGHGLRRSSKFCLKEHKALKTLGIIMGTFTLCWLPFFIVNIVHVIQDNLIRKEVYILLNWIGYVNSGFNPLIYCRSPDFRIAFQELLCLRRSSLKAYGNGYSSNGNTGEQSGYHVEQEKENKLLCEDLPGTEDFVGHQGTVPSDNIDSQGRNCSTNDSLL
Sequence of Dual specificity protein kinase CLK2 (P49760 whole entry, looked up): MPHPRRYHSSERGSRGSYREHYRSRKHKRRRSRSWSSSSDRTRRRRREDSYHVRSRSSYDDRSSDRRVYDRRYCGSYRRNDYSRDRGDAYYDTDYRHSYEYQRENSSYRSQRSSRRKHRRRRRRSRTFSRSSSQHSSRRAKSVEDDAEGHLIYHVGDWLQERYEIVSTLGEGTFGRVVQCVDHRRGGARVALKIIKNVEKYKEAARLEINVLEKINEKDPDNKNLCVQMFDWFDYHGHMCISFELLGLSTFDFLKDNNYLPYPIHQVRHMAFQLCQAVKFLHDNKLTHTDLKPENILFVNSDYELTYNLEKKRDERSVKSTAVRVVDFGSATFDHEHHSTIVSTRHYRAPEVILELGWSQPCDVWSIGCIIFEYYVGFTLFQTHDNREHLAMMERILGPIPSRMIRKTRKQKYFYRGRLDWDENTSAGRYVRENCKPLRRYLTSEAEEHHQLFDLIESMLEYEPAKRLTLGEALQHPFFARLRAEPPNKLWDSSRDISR
Sequence of Activin receptor type-1-like (Homo sapiens) (P37023 whole entry): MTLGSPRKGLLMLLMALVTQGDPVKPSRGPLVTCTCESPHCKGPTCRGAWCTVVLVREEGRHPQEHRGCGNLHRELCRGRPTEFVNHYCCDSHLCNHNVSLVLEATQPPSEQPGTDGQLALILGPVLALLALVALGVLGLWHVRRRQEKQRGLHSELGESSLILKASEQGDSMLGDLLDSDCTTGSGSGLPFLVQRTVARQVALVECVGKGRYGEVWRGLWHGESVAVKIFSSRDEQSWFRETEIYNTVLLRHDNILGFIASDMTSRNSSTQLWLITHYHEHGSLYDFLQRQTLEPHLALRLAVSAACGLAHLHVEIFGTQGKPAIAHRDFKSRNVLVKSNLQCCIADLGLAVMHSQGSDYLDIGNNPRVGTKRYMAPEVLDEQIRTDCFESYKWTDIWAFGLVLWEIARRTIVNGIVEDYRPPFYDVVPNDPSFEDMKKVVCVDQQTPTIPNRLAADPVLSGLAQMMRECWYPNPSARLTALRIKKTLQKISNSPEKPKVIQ

Nc1cnc(N2CCc3cc(S(=O)(=O)Nc4c(F)cc(Cl)cc4F)cc(N4CCCC4=O)c32)nc1 [TP-020n]
% of inhibition [1]: -0.37% | % of control [2]: 100%

CC[C@@H]1[C@H](F)C(=O)N[C@@H]1COc1nccc2cc(C(N)=O)c(OC)cc12 [ZIMLOVISERTIB]
% of inhibition [3]: 8.7%

Cc1cc([C@@H](C)Nc2ccccc2C(=O)O)c2nc(N3CCOCC3)cc(=O)n2c1 [AZD-6482]
% of control [4]: 89%

COc1cc(C(=O)N2CC[C@@H](O)[C@@H](N)C2)cc2nc(-c3cc4ccccc4n3CC3CC3)n(C)c12
pXC50 [5]: < 4.5 M

Cn1cc(-n2cnc3c(NCc4nc5cc(Cl)c(Cl)cc5[nH]4)nc(N4CCOCC4)nc32)cn1
% of inhibition [6]: -24%

Cc1cc(C)cc([C@@H]2c3cc(C)ccc3NC(=O)CN2C(=O)c2ccc(Br)s2)c1
% of inhibition [7]: -5%

C=CC(=O)Nc1cccc(C(=O)Nc2ccc(Nc3cc(-c4[nH]c(SC)nc4C)ccn3)cc2)c1
% of control ([8]; at 1 µM): 84% | % of control ([8]; at 5 µM): 84%
